The values below come from patent US9862746B2, “Compositions and methods relating to hindering DOT1L recruitment by MLL-fusion proteins” (The Regents of the University of Michigan, priority 2013, dated 2018).

Where a SMILES comes first, the peptide text is derived from it. Where no end group is shown, it is not given here.

One assay concerns H3K79 methylation. Briefly: Global H3K79 methylation in MLL-AF9 transformed cells. The assay is classed as cell-based, mouse. Conditions: 6 days treatment of MLL-AF9 transformed cells. The text has this:
FIG. 23 presents cell growth curves of A) MLL-AF9 and B) Hoxa9/Meis1 transformed mouse cells and C) adult LSKs after treatment with 38. D) H3K79 methylation after 6 days treatment with 38 and EPZ004777 DOT1L inhibitor (see, e.g., Daigle, et al., Cancer Cell 20, 53-65 (2011)).
This example involves the assessment of cellular effects of compound 38. […] Compound 38 inhibited growth of MLL-AF9 cells in a dose-dependent manner (FIG. 23A), with cell growth inhibition starting after 4 days of treatment. […] The hypothesis predicts that compounds that can block the DOT1L recruitment, but not its catalytic activity, will not affect normal hematopoiesis, as well as the global level of H3K79 methylation. To test this hypothesis, the toxicity of compound 38 was tested on purified LSK (lin-sca-1+ckit+) progenitors from adult wild type mice (FIG. 23C).

In the next assay the target is T1, ENL (Homo sapiens, UniProt Q03111).
T1 construct: against AF9(497-568) and ENL (489-559) proteins running different tested concentrations over CM5 chip; MBP (pMSCG9-LIC vector); made in house; host or cells: Escherichia coli BL21 (DE3)
T1 sequence (Q03111 489-559): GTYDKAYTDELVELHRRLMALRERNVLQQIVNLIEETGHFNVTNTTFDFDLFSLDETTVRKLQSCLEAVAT
Briefly: Solution competitive SPR assay of peptides, ENL-DOT1L interaction. The following applies: read-out: IC50 against ENL (block PPI DOT1L/ENL). In kind it is binding. Here is the method: (§1) Solution competitive SPR based assay was performed to determine the IC50 values of DOT1L peptides. […] Response units (RU) were measured at 15 seconds in the dissociation phase and the specific binding was calculated by subtracting the control surface (Fcl) signal from the surfaces with immobilized Mocr-DOT1L. IC50 values were determined by non-linear least squares analysis using Graph Pad Prism 5.0 software.
(Surface plasmon resonance follows binding to a sensor surface in real time, without labels.)

The target in a further assay is T2, MBP-ENL (489-559) (Homo sapiens, UniProt Q03111).
T2 construct: MBP-ENL (489-559) was dialysed extensively; made in house; host or cells: Escherichia coli BL21 (DE3)
T2 sequence (Q03111 489-559): T1 sequence (Q03111 489-559)
In words: Isothermal titration calorimetry with MBP-ENL. In kind it is binding. The following applies: ITC, MBP-tagged ENL, 1:1 stoichiometry; read-out: KD to ENL protein. The method, then: (§2) Isothermal titration calorimetry—ITC was carried out using a Nano-ITC Micro Calorimeter (TA Instruments) at 20° C. MBP-ENL (489-559) was dialysed extensively against 50 mM Na2HPO4, (pH 7.5) and 100 mM NaCl, and 80 μM was used for titration studies of DOT1L 16-mer and 10-mer peptides, and 110 μM for DOT1L 7-mer titration. Tested peptides dissolved in the same buffer at 400 μM (DOT1L 16-mer and 10-mer) or 500 μM (DOT1L 7-mer) were tested by injecting 2 μl aliquots into the protein sample, at time intervals of […], to ensure that the titration peak returned to the baseline. The ITC data were analyzed by NanoAnalyze software package using a one site-binding model.

Assay [1] concerns the target T3, AF9 (Homo sapiens, UniProt P42568).
T3 sequence (P42568 497-568): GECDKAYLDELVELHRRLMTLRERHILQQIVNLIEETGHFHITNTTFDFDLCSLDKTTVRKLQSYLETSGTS
Briefly: Solution competitive SPR assay of peptides, AF9-DOT1L interaction. In kind it is binding. The arrangement: against AF9(497-568) and ENL (489-559) proteins running different tested concentrations over CM5 chip; GB1 (pGB1-LIC vector); made in house; host or cells: Escherichia coli BL21 (DE3). The following applies: read-out: IC50 against AF9 (block PPI DOT1L/AF9). The method, then:
as §1

The target in assay [2] is T4, Flag-DOT1L and Myc-CxxC-AF9 interaction (Homo sapiens, UniProt P42568+Q03164).
T4 construct: expressed in transfected cells; host or cells: HEK 293
T4 sequence (Q03164+P42568 fused): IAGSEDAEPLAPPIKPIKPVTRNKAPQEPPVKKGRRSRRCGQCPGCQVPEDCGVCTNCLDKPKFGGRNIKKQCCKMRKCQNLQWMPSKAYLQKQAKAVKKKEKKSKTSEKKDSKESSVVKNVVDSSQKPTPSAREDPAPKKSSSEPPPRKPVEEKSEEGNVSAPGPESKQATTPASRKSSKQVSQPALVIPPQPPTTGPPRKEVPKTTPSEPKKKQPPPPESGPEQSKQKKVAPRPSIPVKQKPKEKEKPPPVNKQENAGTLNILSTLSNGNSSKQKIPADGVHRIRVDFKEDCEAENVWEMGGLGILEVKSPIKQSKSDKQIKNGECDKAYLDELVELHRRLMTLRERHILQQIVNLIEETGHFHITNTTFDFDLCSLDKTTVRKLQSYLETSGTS
In words: Co-immunoprecipitation in HEK 293 cell lysate. The assay is classed as binding. Conditions: HEK 293 whole cell lysate pre-incubated with peptide. The method, then:
(§3) To assess whether DOT1L 10-mer peptide can bind and block the interaction between full length DOT1L and MLL-fusion proteins HEK 293 cells were transiently co-transfected ith Flag-tagged human DOT1L protein and Myc-tagged CxxC-AF9 protein. The whole cell lysate was pre-incubated with different concentrations of DOT1L 10-mer peptide and co-immunoprecipitation (co-IP) experiments were performed. […] To further probe and confirm the cellular target for DOT1L 10-mer peptide, a biotinylated DOT1L 10-mer peptide was synthesized. To determine the binding affinity of this labeled peptide FP competitive based assay was used and tested together with corresponding unlabeled DOT1L 10 mer peptide.
Cell Culture, Transfections, and Immunoprecipitation—HEK293 cells were plated in 100 mm culture dishes and cultured in Dulbecco's modified Eagle's medium (DMEM) supplemented with 10% FBS and antibiotics. Co-transfection with FLAG-DOTL and Myc-CxxC-AF9 was performed using Lipofectamine 2000 (Invitrogen). […] After incubation, the beads were washed extensively, boiled in SDS loading buffer and analyzed by western blotting using mouse monoclonal anti-FLAG M2 (Sigma-Aldrich) and goat monoclonal anti-Myc tag (Abcam) antibody.

In assay [3] the target is T3, AF9. Briefly: Optimized competitive FP binding assay (N-Flu-DOT1L / AF9). Also on record: the recombinant GB1-AF9 protein (residues 497-568); made in house; host or cells: Escherichia coli BL21 (DE3).
The next assay deals with MBP tag (Escherichia coli, UniProt P0AEX9). Briefly: Isothermal titration calorimetry with MBP tag only. In kind it is binding. The following applies: ITC. The method, then:
FIG. 4 describes isothermal titration calorimetry (ITC) of MBP tag only (80 μM) with a solution of DOT1L 16-mer (400 μM). The raw data are shown in the upper panel, and the integrated heat data are shown in the lower panel.
as §2

The target of the next assay is T5, Myc-CxxC-AF9 (Homo sapiens, UniProt P42568+Q03164).
T5 construct: expressed in transfected cells; host or cells: HEK293
T5 sequence (Q03164+P42568 fused): as above
In words: Streptavidin-biotin pull-down in HEK 293 cell lysate. Conditions: HEK 293 cell lysates. The assay is classed as binding. The method, then:
as §3
Pull-down assay—HEK293 cells transfected with Myc-CxxC-AF9 were lysed in BC-300 lysis buffer in a same way as the immunoprecipitation experiment. The supernatant was pre-cleared for 2 h in streptavidin agarose beads (Thermal Scientific). The pre-cleared lysates were incubated with different concentrations of biotin-labeled DOT1L 10 mer peptide at 4° C. overnight. The next day, the cell lysate were incubated with streptavidin agarose at 4° C. for 2 h. After extensive washing the beads with the BC-300 lysis buffer without NP-40, the pull down samples were applied to SDS-PAGE electrophoresis and pull-down Myc-CxxC-AF9 protein was probed with goat monoclonal anti-Myc tag antibody (Abcam).

`CC(C)N(CCCNC(=O)Nc1ccc(C(C)(C)C)cc1)C[C@H]1O[C@@H](n2ccc3c(N)ncnc32)[C@H](O)[C@@H]1O` [EPZ004777, reference compound]: in the assay with H3K79 methylation, the “global H3K79 methylation level” value is on record as “decreased global level of H3K79 methylation”.
On to `CC[C@H](C)[C@H](NC(=O)[C@@H]1CCCN1C(=O)[C@H](CC(C)C)NC(C)=O)C(=O)N[C@@H](CO)C(=O)N[C@H](C(=O)N1CCC[C@H]1C(=O)N[C@@H](CC(C)C)C(=O)N[C@@H](CO)C(=O)N[C@H](C(=O)N[C@H](C(N)=O)C(C)C)[C@@H](C)O)[C@@H](C)CC` [DOT1L 10mer] (Ac-LPISIPLSTV-NH2), for which the IC50 on ENL is 1.34 µM; at AF9 [1], 0.49 µM. Moreover, at MBP-ENL (489-559), the Kd was 1.1 µM. For the same molecule, the “disruption of DOT1L / CxxC-AF9 interaction (co-IP)” value in assay [2] is “blocks the interaction of cellular DOT1L with CxxC-AF9 in a dose dependent manner”. Also, the Ki at AF9 [3] was 0.068 ± 0.015 µM.
As for `CC[C@H](C)[C@H](NC(=O)[C@@H]1CCCN1C(=O)[C@H](CC(C)C)NC(C)=O)C(=O)N[C@@H](CO)C(=O)N[C@H](C(=O)N1CCC[C@H]1C(=O)N[C@@H](CC(C)C)C(=O)N[C@@H](CO)C(=O)N[C@H](C(=O)N[C@H](C(=O)N[C@@H](CCC(N)=O)C(=O)N1CCC[C@H]1C(=O)N[C@@H](CC(N)=O)C(=O)N[C@@H](CCCCN)C(=O)N[C@@H](CC(C)C)C(=O)N1CCC[C@H]1C(N)=O)C(C)C)[C@@H](C)O)[C@@H](C)CC` [DOT1L 16 mer] (Ac-LPISIPLSTVQPNKLP-NH2), the results for the IC50 on ENL and on AF9 [1] were 1.56 µM and 0.32 µM, respectively. Besides, the dissociation constant Kd on MBP-ENL (489-559) was determined as 0.9 µM. Besides, the inhibition constant (Ki) at AF9 [3] came out at 0.08 µM. For the same molecule, at MBP tag, the “binding to the MBP tag only” value is reported as “did not show any binding”.
Consider “biotinylated DOT1L 10-mer peptide: DOT1L 10-mer peptide with N-terminal biotin group (LPISIPLSTV-NH2; not fully specified (N-terminus); also: N-terminal biotin coupled to lysine and two β-alanine spacer, order not given here)”, for which, in the assay with Myc-CxxC-AF9, the “binding to cellular CxxC-AF9 (pull-down)” value is “recognizes and binds to the cellular CxxC-AF9 protein in a dose dependent manner”.

In general, Kd refers to the concentration at which binding is half-saturated. The Ki is a dissociation constant, usually derived from enzyme kinetics or from competition with a known ligand.
